According to patent EP0511791A2, “Pyrrolopyridine derivatives as Angiotensin inhibitors” (ZENECA LIMITED, priority 1991, dated 1992):

Test system: angiotensin II-induced pressor responses
Experiment: Test C: antagonism of angiotensin II-induced pressor responses in rats
Type: in vivo
Settings: Rattus norvegicus, iv, i.v. administration
Procedure: Test C: This in vivo test involves using terminally-anaesthetised or conscious rats in which an arterial catheter has been implanted under anaesthesia for the measurement of changes in blood pressure. The All antagonistic effects of the test compound following oral or parenteral administration, are assessed against angiotensin II-induced pressor responses. To ensure that the effect is specific, the effect of the test compound on vasopressin-induced pressor responses may also be determined in the same preparation.

Cc1cc2c(cc(C)n2Cc2ccc(-c3ccccc3-c3nnn[nH]3)cc2)c(Cl)n1.Cl [Example 2, 4-chloro-2,6-dimethyl-1-[(2'-(1H-tetrazol-5-yl)biphenyl-4-yl)methyl]-1H-pyrrolo[3,2-c]pyridine hydrochloride]
ED50: 0.4 mg/kg
